Measurements reported in patent US9771341B2, “Piperazine carbamates and methods of making and using same” (Abide Therapeutics, Inc., priority 2015, dated 2017).

Legend:
MAGL [1] = target: T1, MAGL (Mus musculus, UniProt O35678); experiment: In vitro competitive activity-based protein profiling (mouse), MAGL; type: biochemical; settings: for inhibition at 1 µM: mouse proteome, in vitro, read-out: % Inhibition at 1 μM MAGL; for IC50: mouse brain membrane fraction or cell lysates, 30 min preincubation at 37° C, FP-Rh probe
T1 construct: Proteomes (mouse brain membrane fraction or cell lysates); from tissue; host or cells: mouse brain membrane fraction (or unspecified cell lysates)
T1 sequence (O35678 1-303): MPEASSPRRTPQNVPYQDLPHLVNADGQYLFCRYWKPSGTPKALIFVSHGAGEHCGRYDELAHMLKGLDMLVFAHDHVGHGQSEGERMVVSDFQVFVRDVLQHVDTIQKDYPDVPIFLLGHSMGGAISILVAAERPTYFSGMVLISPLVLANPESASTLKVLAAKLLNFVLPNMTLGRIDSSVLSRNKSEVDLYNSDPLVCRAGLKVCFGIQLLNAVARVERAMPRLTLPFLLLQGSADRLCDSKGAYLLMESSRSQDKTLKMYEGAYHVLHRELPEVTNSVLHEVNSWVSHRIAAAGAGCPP
Description: (§1) In Vitro Competitive Activity-Based Protein Profiling (Mouse).
(§2) Proteomes (mouse brain membrane fraction or cell lysates) (50 μL, 1.0 mg/mL total protein concentration) were preincubated with varying concentrations of inhibitors at 37° C. After 30 min, FP-Rh (1.0 μL, 50 μM in DMSO) was added and the mixture was incubated for another 30 min at 37° C. Reactions were quenched with SDS loading buffer (50 μL-4×) and run on SDS-PAGE.

FAAH [2] = target: T2, FAAH (Mus musculus, UniProt O08914); experiment: In vitro competitive activity-based protein profiling (mouse), FAAH; type: biochemical; settings: for inhibition at 1 µM: mouse proteome, in vitro; for IC50: mouse brain membrane fraction or cell lysates, 30 min preincubation at 37° C, FP-Rh probe
T2 construct: Proteomes (mouse brain membrane fraction or cell lysates); from tissue; host or cells: mouse brain membrane fraction (or unspecified cell lysates)
T2 sequence (O08914 1-579): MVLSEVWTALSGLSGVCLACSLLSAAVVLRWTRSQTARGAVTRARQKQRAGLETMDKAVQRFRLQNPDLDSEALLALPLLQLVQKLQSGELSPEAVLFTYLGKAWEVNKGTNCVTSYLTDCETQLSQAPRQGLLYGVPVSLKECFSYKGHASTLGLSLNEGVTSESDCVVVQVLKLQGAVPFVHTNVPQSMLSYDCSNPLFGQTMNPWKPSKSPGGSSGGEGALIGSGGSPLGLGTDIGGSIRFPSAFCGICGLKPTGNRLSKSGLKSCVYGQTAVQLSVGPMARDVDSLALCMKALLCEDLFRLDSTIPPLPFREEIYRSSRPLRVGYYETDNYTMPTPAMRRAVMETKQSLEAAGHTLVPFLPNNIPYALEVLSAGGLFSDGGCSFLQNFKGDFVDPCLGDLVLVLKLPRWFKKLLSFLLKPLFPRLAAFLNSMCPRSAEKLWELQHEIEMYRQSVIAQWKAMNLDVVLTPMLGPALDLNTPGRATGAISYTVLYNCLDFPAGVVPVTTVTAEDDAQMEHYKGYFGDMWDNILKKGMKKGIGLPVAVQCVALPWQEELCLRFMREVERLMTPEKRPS
Summary of the method: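 Competitive ABPP: inhibitor exposure (30 min, 37° C) of mouse brain membrane or lysate proteome at 1.0 mg/mL, then labelling with FP-Rh for another 30 min. Activity quantified by in-gel fluorescence of FAAH bands after SDS-PAGE.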

ABHD6 [3] = target: T3, ABHD6 (Mus musculus, UniProt Q8R2Y0); experiment: In vitro competitive activity-based protein profiling (mouse), ABHD6; type: biochemical; settings: for inhibition at 1 µM: mouse proteome, in vitro, read-out: % Inhibition at 1 μM ABHD6; for IC50: mouse brain membrane fraction or cell lysates, 30 min preincubation at 37° C, FP-Rh probe
T3 construct: Proteomes (mouse brain membrane fraction or cell lysates); from tissue; host or cells: mouse brain membrane fraction (or unspecified cell lysates)
T3 sequence (Q8R2Y0 1-336): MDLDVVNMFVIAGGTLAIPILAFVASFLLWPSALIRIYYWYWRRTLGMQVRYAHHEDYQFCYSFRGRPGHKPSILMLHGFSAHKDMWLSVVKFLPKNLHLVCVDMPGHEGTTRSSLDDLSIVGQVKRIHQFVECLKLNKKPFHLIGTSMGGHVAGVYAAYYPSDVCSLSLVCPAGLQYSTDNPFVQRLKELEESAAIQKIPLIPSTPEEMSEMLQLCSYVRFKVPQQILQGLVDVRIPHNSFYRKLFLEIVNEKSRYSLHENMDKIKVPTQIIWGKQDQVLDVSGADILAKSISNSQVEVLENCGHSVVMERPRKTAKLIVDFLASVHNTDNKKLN
Description: as §1, §2

MAGL [4] = target: T1, MAGL; experiment: Mouse brain proteomes from inhibitor treated mice, MAGL; type: in vivo; settings: 5 mg/kg oral gavage, C57Bl/6J mice, brain proteome 4 h after administration
Description: (§3) Preparation of Mouse Brain Proteomes from Inhibitor Treated Mice.
(§4) Inhibitors were administered to wild-type C57Bl/6J by oral gavage in a vehicle of polyethylene glycol.

FAAH [5] = target: T2, FAAH; experiment: Mouse brain proteomes from inhibitor treated mice, FAAH; type: in vivo; settings: 5 mg/kg oral gavage, C57Bl/6J mice, brain proteome 4 h after administration
Description: as §3
Inhibitors were administered to wild-type C57Bl/6J by oral gavage in a vehicle of polyethylene glycol. Each animal was sacrificed 4 h following administration and brain proteomes were prepared and analyzed according to previously established methods (See Niphakis, M. J., et al. (2011) ACS Chem. Neurosci. and Long, J. Z., et al. Nat. Chem. Biol. 5:37-44)

ABHD6 [6] = target: T3, ABHD6; experiment: Mouse brain proteomes from inhibitor treated mice, ABHD6; type: in vivo; settings: 5 mg/kg oral gavage, C57Bl/6J mice, brain proteome 4 h after administration
Description: as §3, §4

Structure (SMILES)	inhibition at 1 µM (MAGL [1]) [%]	IC50 (MAGL [1]) [nM]	inhibition at 1 µM (FAAH [2]) [%]	IC50 (FAAH [2]) [nM]	inhibition at 1 µM (ABHD6 [3]) [%]	IC50 (ABHD6 [3]) [nM]	inhibition at 5 mg/kg (MAGL [4]) [%]	inhibition at 5 mg/kg (FAAH [5]) [%]	inhibition at 5 mg/kg (ABHD6 [6]) [%]
O=C(O)C1CN(c2cc(C(F)(F)F)ccc2CN2CCN(C(=O)OC(C(F)(F)F)C(F)(F)F)CC2)CCO1 (stereo not drawn) [Example 75, 4-(2-((4-(((1,1,1,3,3,3-hexafluoropropan-2-yl)oxy)carbonyl)piperazin-1-yl)methyl)-5-(trifluoromethyl)phenyl)morpholine-2-carboxylic acid]	> 75	< 100	< 25	> 1000	< 25	> 1000	< 25	< 25	< 25
O=C(OC(C(F)(F)F)C(F)(F)F)N1CCN(Cc2ccc(Cl)cc2N2CC[C@@H](N3CCCS3(=O)=O)C2)CC1 [Example 45, 1,1,1,3,3,3-hexafluoropropan-2-yl (R)-4-(4-chloro-2-(3-(1,1-dioxidoisothiazolidin-2-yl)pyrrolidin-1-yl)benzyl)piperazine-1-carboxylate]	> 75	< 100	< 25	> 1000	> 75	100 to 1000	25 to 75	< 25	< 25
O=C(OC(C(F)(F)F)C(F)(F)F)N1CCN(Cc2ccc(Cl)cc2N2CC[C@H](N3CCCCC3=O)C2)CC1 [Example 44, 1,1,1,3,3,3-hexafluoropropan-2-yl (S)-4-(4-chloro-2-(3-(2-oxopiperidin-1-yl)pyrrolidin-1-yl)benzyl)piperazine-1-carboxylate]	> 75	< 100	< 25	> 1000	< 25	> 1000	< 25	< 25	< 25
CS(=O)(=O)N[C@@H]1CCN(c2cc(C(F)(F)F)ccc2CN2CCN(C(=O)OC(C(F)(F)F)C(F)(F)F)CC2)C1 [Example 60, 1,1,1,3,3,3-hexafluoropropan-2-yl (R)-4-(2-(3-(methylsulfonamido)pyrrolidin-1-yl)-4-(trifluoromethyl)benzyl)piperazine-1-carboxylate]	> 75	< 100	< 25	> 1000	< 25	> 1000	> 75	< 25	< 25
O=C(OC(C(F)(F)F)C(F)(F)F)N1CCN(Cc2cccc(Cl)c2N2CC3CCC(C2)O3)CC1 [Example 57, 1,1,1,3,3,3-hexafluoropropan-2-yl 4-(2-(8-oxa-3-azabicyclo[3.2.1]octan-3-yl)-3-chlorobenzyl)piperazine-1-carboxylate]	> 75	< 100	< 25	> 1000	< 25	> 1000	> 75	< 25	< 25
O=C(OC(C(F)(F)F)C(F)(F)F)N1CCN(Cc2cccc(OC(F)(F)F)c2N2CCC(N3CCCC3)CC2)CC1 [Example 32, 1,1,1,3,3,3-hexafluoropropan-2-yl 4-(2-(4-(pyrrolidin-1-yl)piperidin-1-yl)-3-(trifluoromethoxy)benzyl)piperazine-1-carboxylate]	> 75	< 100	< 25	> 1000	< 25	> 1000	< 25	< 25	< 25
O=C(OC(C(F)(F)F)C(F)(F)F)N1CCN(Cc2ccc(C(F)(F)F)cc2N2CCC(CO)CC2)CC1 [Example 74, 1,1,1,3,3,3-hexafluoropropan-2-yl 4-(2-(4-(hydroxymethyl)piperidin-1-yl)-4-(trifluoromethyl)benzyl)piperazine-1-carboxylate]	> 75	< 100	< 25	> 1000	< 25	> 1000	25 to 75	< 25	< 25
O=C(OC(C(F)(F)F)C(F)(F)F)N1CCN(Cc2ccc(C(F)(F)F)cc2N2CC[C@H](CF)C2)CC1 [Example 54, 1,1,1,3,3,3-hexafluoropropan-2-yl (S)-4-(2-(3-(fluoromethyl)pyrrolidin-1-yl)-4-(trifluoromethyl)benzyl)piperazine-1-carboxylate]	> 75	< 100	< 25	> 1000	< 25	> 1000	> 75	< 25	< 25
Cc1cccc(CN2CCN(C(=O)OC(C(F)(F)F)C(F)(F)F)CC2)c1N1CCC(NS(C)(=O)=O)CC1 [Example 51, 1,1,1,3,3,3-hexafluoropropan-2-yl 4-(3-methyl-2-(4-(methylsulfonamido)piperidin-1-yl)benzyl)piperazine-1-carboxylate]	> 75	< 100	< 25	> 1000	< 25	> 1000	> 75	< 25	< 25
C#CCO[C@H]1CCN(c2cc(Cl)ccc2CN2CCN(C(=O)OC(C(F)(F)F)C(F)(F)F)CC2)C1 [Example 3, 1,1,1,3,3,3-hexafluoropropan-2-yl (S)-4-(4-chloro-2-(3-(prop-2-yn-1-yloxy)pyrrolidin-1-yl)benzyl)piperazine-1-carboxylate]	–	< 100	–	> 1000	–	> 1000	> 75	< 25	< 25
CS(=O)(=O)N[C@H]1CCN(c2cc(Cl)ccc2CN2CCN(C(=O)OC(C(F)(F)F)C(F)(F)F)CC2)C1 [Example 40, 1,1,1,3,3,3-hexafluoropropan-2-yl (S)-4-(4-chloro-2-(3-(methylsulfonamido)pyrrolidin-1-yl)benzyl)piperazine-1-carboxylate]	> 75	< 100	< 25	> 1000	< 25	> 1000	> 75	< 25	< 25
O=C(OC(C(F)(F)F)C(F)(F)F)N1CCN(Cc2cccc(Cl)c2N2CC[C@H](CF)C2)CC1 [Example 55, 1,1,1,3,3,3-hexafluoropropan-2-yl (S)-4-(3-chloro-2-(3-(fluoromethyl)pyrrolidin-1-yl)benzyl)piperazine-1-carboxylate]	> 75	< 100	< 25	> 1000	< 25	> 1000	> 75	< 25	< 25
